pEC50, pKi: −log10 of the molar value. Active and inactive are the calls of the source. No cut-off for these calls is given here. Starred links: 1 amine or outer side, 2 acyl side, 3 side chain; linkers in the order of their positions; H or OH if unused. Residues, ends and D or L forms follow the SMILES beside them. Groups on a side chain read outwards from the residue. *: point of attachment. Suc = O=C(CCC(=O)[*:2])[*:1]; CO = O=C([*:1])[*:2]; NH(CH2)3NH2 = NCCCN*
Columns and labels:
[1] = biological target: T1, Neuropeptide Y receptor type 4 (Homo sapiens, UniProt P50391); assay: Displacement of [3H]UR-KK200 from human neuropeptide Y Y4 receptor expressed in CHO-mtAEQ cells co-expressing Gqi5 measured after 90 mins by scintillation counting analysis; format: cell-based; conditions: for pKi: read-out: Ki; for Ki: read-out: pKi (converted)
T1 sequence (P50391 whole entry): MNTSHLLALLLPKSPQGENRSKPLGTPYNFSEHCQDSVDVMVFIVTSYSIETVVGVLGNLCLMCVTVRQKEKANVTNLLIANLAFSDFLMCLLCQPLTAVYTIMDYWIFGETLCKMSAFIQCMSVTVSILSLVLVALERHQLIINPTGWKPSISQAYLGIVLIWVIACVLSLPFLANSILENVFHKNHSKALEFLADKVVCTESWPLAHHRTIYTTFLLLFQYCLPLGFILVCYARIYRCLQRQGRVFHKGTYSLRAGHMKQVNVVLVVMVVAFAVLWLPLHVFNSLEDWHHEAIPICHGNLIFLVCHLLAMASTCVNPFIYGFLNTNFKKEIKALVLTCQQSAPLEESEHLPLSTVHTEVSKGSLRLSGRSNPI

[2] = biological target: T1, Neuropeptide Y receptor type 4; assay: Displacement of [3H]UR-KK200 from human neuropeptide Y Y4 receptor expressed in CHO-mtAEQ cells co-expressing Gqi5 assessed as fold change in affinity measured after 90 mins by scintillation counting analysis relative to Ac-Arg-Tyr-Arg-Leu-Arg-Tyr-NH2; format: cell-based; conditions: filed as agonist
[3] = biological target: T2, Neuropeptide Y receptor type 1 (Homo sapiens, UniProt P25929); assay: Displacement of [3H]UR-MK299 from human neuropeptide Y Y1 receptor in human SK-N-MC cells measured after 90 mins by scintillation counting analysis; format: cell-based; conditions: for pKi: read-out: Ki; for Ki: read-out: pKi (converted)
T2 sequence (P25929 whole entry): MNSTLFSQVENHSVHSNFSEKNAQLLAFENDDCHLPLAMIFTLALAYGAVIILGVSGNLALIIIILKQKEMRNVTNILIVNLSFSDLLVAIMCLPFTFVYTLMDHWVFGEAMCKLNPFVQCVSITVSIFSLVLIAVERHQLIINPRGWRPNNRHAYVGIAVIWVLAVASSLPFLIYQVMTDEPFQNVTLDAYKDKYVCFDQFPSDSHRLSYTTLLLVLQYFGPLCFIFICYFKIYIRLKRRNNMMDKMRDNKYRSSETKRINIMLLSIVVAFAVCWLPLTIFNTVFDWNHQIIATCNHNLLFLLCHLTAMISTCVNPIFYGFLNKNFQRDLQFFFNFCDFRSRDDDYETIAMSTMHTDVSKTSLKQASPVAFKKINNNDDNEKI

[4] = biological target: T3, Neuropeptide Y receptor type 2 (Homo sapiens, UniProt P49146); assay: Displacement of [3H]UR-MK299 from human neuropeptide Y Y2 receptor expressed in CHO cells measured after 90 mins by scintillation counting analysis; format: cell-based; conditions: for pKi: read-out: Ki; for Ki: read-out: pKi (converted)
T3 sequence (P49146 whole entry): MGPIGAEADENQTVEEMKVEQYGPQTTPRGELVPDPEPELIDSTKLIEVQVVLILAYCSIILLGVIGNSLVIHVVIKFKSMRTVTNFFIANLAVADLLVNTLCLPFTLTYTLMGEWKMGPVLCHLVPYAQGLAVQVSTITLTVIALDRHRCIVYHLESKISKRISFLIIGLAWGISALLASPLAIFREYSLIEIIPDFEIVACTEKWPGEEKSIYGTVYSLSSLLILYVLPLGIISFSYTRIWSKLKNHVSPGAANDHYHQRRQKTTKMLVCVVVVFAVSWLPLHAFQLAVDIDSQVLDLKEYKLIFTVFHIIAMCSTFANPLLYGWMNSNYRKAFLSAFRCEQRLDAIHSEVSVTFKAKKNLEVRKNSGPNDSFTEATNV

[5] = biological target: T4, Neuropeptide Y receptor type 5 (Homo sapiens, UniProt Q15761); assay: Displacement of [3H]propionyl-pNPY from human neuropeptide Y Y5 receptor in human HEC-1B cells measured after 90 mins by scintillation counting analysis; format: cell-based, HEC-1B cell line; conditions: for pKi: read-out: Ki; for Ki: read-out: pKi (converted)
T4 sequence (Q15761 whole entry): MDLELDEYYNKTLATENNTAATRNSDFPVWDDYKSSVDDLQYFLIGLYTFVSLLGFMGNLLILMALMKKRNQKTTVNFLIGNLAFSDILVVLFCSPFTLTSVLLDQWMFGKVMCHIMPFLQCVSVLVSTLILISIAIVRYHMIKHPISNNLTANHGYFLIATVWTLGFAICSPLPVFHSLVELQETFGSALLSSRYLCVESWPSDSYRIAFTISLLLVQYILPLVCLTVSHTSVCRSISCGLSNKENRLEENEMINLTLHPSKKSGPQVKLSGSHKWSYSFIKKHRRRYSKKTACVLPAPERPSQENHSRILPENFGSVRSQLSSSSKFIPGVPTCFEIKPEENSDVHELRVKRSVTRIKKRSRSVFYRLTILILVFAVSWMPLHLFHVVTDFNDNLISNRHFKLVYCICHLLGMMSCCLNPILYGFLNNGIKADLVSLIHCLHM

Homo sapiens [6] = species on record: Homo sapiens; assay: Selectivity ratio, Ki for displacement of [3H]UR-MK299 from human neuropeptide Y Y1 receptor in human SK-N-MC cells measured after 90 mins by scintillation counting analysis to Ki for displacement of [3H]UR-KK200 from human neuropeptide Y Y4 receptor expressed in CHO-mtAEQ cells co-expressing Gqi5 measured after 90 mins by scintillation counting analysis; format: cell-based
Homo sapiens [7] = species on record: Homo sapiens; assay: Selectivity ratio, Ki for displacement of [3H]UR-MK299 from human neuropeptide Y Y2 receptor expressed in CHO cells measured after 90 mins by scintillation counting analysis to Ki for displacement of [3H]UR-KK200 from human neuropeptide Y Y4 receptor expressed in CHO-mtAEQ cells co-expressing Gqi5 measured after 90 mins by scintillation counting analysis; format: cell-based
Homo sapiens [8] = species on record: Homo sapiens; assay: Selectivity ratio, Ki for displacement of [3H]propionyl-pNPY from human neuropeptide Y Y5 receptor in human HEC-1B cells measured after 90 mins by scintillation counting analysis to Ki for displacement of [3H]UR-KK200 from human neuropeptide Y Y4 receptor expressed in CHO-mtAEQ cells co-expressing Gqi5 measured after 90 mins by scintillation counting analysis; format: cell-based
[9] = biological target: T1, Neuropeptide Y receptor type 4; assay: Agonist activity at human neuropeptide Y Y4 receptor expressed in HEK293T-ARRB1 cells assessed as stimulation of beta-arrestin 1 recruitment by multimode plate reader; format: functional, cell-based; conditions: for pEC50: read-out: EC50; for EC50: read-out: pEC50 (converted)
[10] = biological target: T1, Neuropeptide Y receptor type 4; assay: Intrinsic activity at human neuropeptide Y Y4 receptor expressed in HEK293T-ARRB1 cells assessed as stimulation of beta-arrestin 1 recruitment by multimode plate reader relative to hPP; format: functional, cell-based
[11] = biological target: T1, Neuropeptide Y receptor type 4; assay: Agonist activity at human neuropeptide Y Y4 receptor expressed in HEK293T-ARRB2 cells assessed as stimulation of beta-arrestin 2 recruitment by multimode plate reader; format: functional, cell-based
[12] = biological target: T1, Neuropeptide Y receptor type 4; assay: Intrinsic activity at human neuropeptide Y Y4 receptor expressed in HEK293T-ARRB2 cells assessed as stimulation of beta-arrestin 2 recruitment by multimode plate reader relative to hPP; format: functional, cell-based
[13] = biological target: T1, Neuropeptide Y receptor type 4; assay: Agonist activity at human neuropeptide Y Y4 receptor expressed in CHO-mtAEQ cells co-expressing Gqi5 by calcium aequorin assay; format: functional, cell-based
[14] = biological target: T1, Neuropeptide Y receptor type 4; assay: Intrinsic activity at human neuropeptide Y Y4 receptor expressed in CHO-mtAEQ cells co-expressing Gqi5 by calcium aequorin assay; format: functional, cell-based

SMILES	pKi [1]	fold change (FC) [2]	pKi [3]	Ki [3] [nM]	pKi [4]	Ki [4] [nM]	pKi ([5]; hec-1b cell line)	Ki [5] [nM]	pEC50 [9]	Intrinsic activity [10]	pEC50 [11]	Intrinsic activity [12]	pEC50 [13]	Intrinsic activity [14]	Ki [1] [nM]	pKi [5]	EC50 [9] [nM]	Selectivity ratio (Homo sapiens [6])	Selectivity ratio (Homo sapiens [7])	Selectivity ratio (Homo sapiens [8])
CC(C)C[C@H](NC(=O)[C@@H]1CCC(=O)NCC(=O)N[C@H](CCCNC(=N)N)C(=O)N[C@@H](CCCNC(=N)N)C(=O)N1)C(=O)N[C@@H](CCCNC(=N)N)C(=O)N[C@@H](Cc1ccc(O)cc1)C(N)=O	7.52	-8.8	< 5.52	> 3160	< 5.52	> 3160		> 3160		inactive	< 5.00	inactive	< 5.00	inactive	28.8	< 5.52	> 10000	> 100	> 100	> 100
N=C(N)NCCC[C@H](NC(=O)CCC(=O)O)C(=O)N[C@@H](Cc1ccc(O)cc1)C(=O)N[C@@H](CCCNC(=N)NC(=O)NCCCN)C(=O)N[C@@H](Cc1c[nH]c2ccccc12)C(=O)N[C@@H](CCCNC(=N)N)C(=O)N[C@@H](Cc1ccc(O)cc1)C(N)=O (Suc-RYR([CO-NH(CH2)3NH2])WRY-NH2)	7.20	-19		> 10000	< 5.52	> 3160		> 3160		inactive	7.05	inactive	7.04	inactive	56.2	< 5.52	123	> 150	> 47	> 47
N=C(N)NCCC[C@H](NC(=O)CCC(=O)O)C(=O)N[C@@H](Cc1ccc(O)cc1)C(=O)N[C@@H](CCCNC(=N)NC(=O)NCCCCN)C(=O)N[C@@H](Cc1c[nH]c2ccccc12)C(=O)N[C@@H](CCCNC(=N)N)C(=O)N[C@@H](Cc1ccc(O)cc1)C(N)=O (single isomer, unassigned)	7.30	-15	< 5.52	> 3160	< 5.52	> 3160	< 5.00	> 10000		inactive	6.84	inactive	7.12	inactive			85.1	> 60	> 60	> 200

Further lines, with some results ahead:

pKi [1]	fold change (FC) [2]	pKi [3]	Ki [3] [nM]	pKi [4]	Ki [4] [nM]	pKi ([5]; hec-1b cell line)	Ki [5] [nM]	pEC50 [9]	Intrinsic activity [10]	pEC50 [11]	Intrinsic activity [12]	pEC50 [13]	Intrinsic activity [14]	Ki [1] [nM]	pKi [5]	EC50 [9] [nM]	SMILES	Selectivity ratio (Homo sapiens [6])	Selectivity ratio (Homo sapiens [7])	Selectivity ratio (Homo sapiens [8])
8.80	2.1	< 5.52	> 10000	< 5.00	> 10000	< 5.00	> 10000	6.89	84%	7.02	83%	6.72	61%				N=C(N)NCCC[C@@H]1NC(=O)CCC(=O)NCCCCNC(=O)NC(=N)NCCC[C@@H](C(=O)N[C@@H](Cc2c[nH]c3ccccc23)C(=O)N[C@@H](CCCNC(=N)N)C(=O)N[C@@H](Cc2ccc(O)cc2)C(N)=O)NC(=O)[C@H](Cc2ccc(O)cc2)NC1=O (HELM PEPTIDE1{R.Y.[N=C(NCCC[C@H](N[*:1])C(=O)[*:2])N[*:3]].W.R.Y.[am]}|CHEM1{[O=C(CCC(=O)[*:1])NCCCCNC(=O)[*:2]]}$PEPTIDE1,CHEM1,1:R1-1:R1|PEPTIDE1,CHEM1,3:R3-1:R2$$$V2.0)	> 1800	> 6200	> 6200
7.55	-8.2		> 10000	< 5.00	> 10000	< 5.00	> 10000	6.28	35%	6.45	47%	6.42	45%	28.8			N=C(N)NCCC[C@@H]1NC(=O)CCC(=O)NCCCNC(=O)NC(=N)NCCC[C@@H](C(=O)N[C@@H](Cc2c[nH]c3ccccc23)C(=O)N[C@@H](CCCNC(=N)N)C(=O)N[C@@H](Cc2ccc(O)cc2)C(N)=O)NC(=O)[C@H](Cc2ccc(O)cc2)NC1=O (HELM PEPTIDE1{R.Y.[N=C(NCCC[C@H](N[*:1])C(=O)[*:2])N[*:3]].W.R.Y.[am]}|CHEM1{[O=C(CCC(=O)[*:1])NCCCNC(=O)[*:2]]}$PEPTIDE1,CHEM1,1:R1-1:R1|PEPTIDE1,CHEM1,3:R3-1:R2$$$V2.0)	> 350	> 350	> 350
9.89	26		> 10000	< 5.52	> 3160		> 1000	8.46	90%	8.27	87%	7.82	83%	0.117	< 5.52		CC(C)C[C@H](NC(=O)[C@@H]1CCCNC(=N)NC(=O)NCCCNC(=O)CCC(=O)N[C@@H](CCCNC(=N)N)C(=O)N[C@@H](Cc2ccc(O)cc2)C(=O)N1)C(=O)N[C@@H](CCCNC(=N)N)C(=O)N[C@@H](Cc1ccc(O)cc1)C(N)=O	> 76000	> 23000	> 23000

Source: ChEMBL document CHEMBL4840359, “N-Terminus to Arginine Side-Chain Cyclization of Linear Peptidic Neuropeptide Y Y4 Receptor Ligands Results in Picomolar Binding Constants” (J Med Chem, 2021)
